# Source: patent US20260373156A1, “CANCER TREATMENTS USING MTA-COOPERATIVE PRMT5 INHIBITORS” (AMGEN INC., priority 2022, published 2026)
# Test system: A549 cells
# Experiment: CellTiter-Glo viability and CalcuSyn synergy, PRMT5 inhibitor + KRAS G12X inhibitor, 6 days
# Conditions: for Combination Fa: 8640 min
# [1] = Compound B 0.0808 μM + KRAS G12X inhibitor 0.010628 μM
# [2] = Compound B 0.0808 μM + KRAS G12X inhibitor 0.020193 μM
# [3] = Compound B 0.0808 μM + KRAS G12X inhibitor 0.038367 μM
# [4] = Compound B 0.0808 μM + KRAS G12X inhibitor 0.072897 μM
# [5] = Compound B 0.0808 μM + KRAS G12X inhibitor 0.138504 μM
# [6] = Compound B 0.0808 μM + KRAS G12X inhibitor 0.263158 μM
# [7] = Compound B 0.0808 μM + KRAS G12X inhibitor 0.5 μM
compound,measurement,setting,value
Cc1cc2cc(C(=O)N(Cc3ccc(C(F)(F)F)cn3)[C@@H](C)c3ncccn3)ccc2nc1N [Compound B],Computed CI value,[1],0.38
same,Combination Fa,[1],0.5945
same,Computed CI value,[2],0.366
same,Combination Fa,[2],0.6255
same,Computed CI value,[3],0.247
same,Combination Fa,[3],0.7012
same,Computed CI value,[4],0.284
same,Combination Fa,[4],0.7187
same,Computed CI value,[5],0.27
same,Combination Fa,[5],0.7582
same,Computed CI value,[6],0.409
same,Combination Fa,[6],0.7615
same,Computed CI value,[7],0.503
same,Combination Fa,[7],0.7849
